Laboratory results taken from BindingDB's records for doi:10.3109/14756366.2011.637200 (Kirklareli University, 2013).

Key:
Experiment in all cases: CA Inhibition Assay
Conditions in all cases: pH 7.5; 25 °C
Carbonic anhydrase 1 = Carbonic anhydrase 1 (Homo sapiens, UniProt P00915)
Carbonic anhydrase 2 = Carbonic anhydrase 2 (Homo sapiens, UniProt P00918)
Carbonic anhydrase 6 = Carbonic anhydrase 6 (Homo sapiens, UniProt P23280)
Carbonic anhydrase 6, sequence (P23280 whole entry): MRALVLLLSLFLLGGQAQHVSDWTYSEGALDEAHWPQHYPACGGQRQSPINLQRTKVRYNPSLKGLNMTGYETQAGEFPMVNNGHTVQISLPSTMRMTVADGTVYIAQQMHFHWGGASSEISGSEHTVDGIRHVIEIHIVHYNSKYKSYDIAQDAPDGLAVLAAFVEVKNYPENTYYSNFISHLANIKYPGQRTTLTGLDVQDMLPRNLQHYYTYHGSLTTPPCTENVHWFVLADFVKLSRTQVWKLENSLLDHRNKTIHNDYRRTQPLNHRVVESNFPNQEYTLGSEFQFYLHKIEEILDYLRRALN

Carbonic anhydrase 1, sequence (P00915 whole entry): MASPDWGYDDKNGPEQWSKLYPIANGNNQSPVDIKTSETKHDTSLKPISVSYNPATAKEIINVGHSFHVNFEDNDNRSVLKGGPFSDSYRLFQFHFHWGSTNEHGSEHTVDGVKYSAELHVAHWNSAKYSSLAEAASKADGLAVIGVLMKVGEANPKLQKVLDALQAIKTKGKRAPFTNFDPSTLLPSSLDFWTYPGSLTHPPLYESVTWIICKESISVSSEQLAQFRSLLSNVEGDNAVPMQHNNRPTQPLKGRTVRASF

| Ki (Carbonic anhydrase 1) [nM] | Ki (Carbonic anhydrase 2) [nM] | Ki (Carbonic anhydrase 6) [nM] | SMILES |
| --- | --- | --- | --- |
| 2270 | 784 | 593 | Cc1c(CCO)sc[n+]1C [CA inhibitor, 1] |
| 1150 | 105 | 128 | Cc1c(CCO)sc[n+]1Cc1ccccc1 [CA inhibitor, 2] |
| 380 | 85 | 62 | Cc1ncc(C[n+]2csc(CCO)c2C)c(N)n1 [Vitamin B 1] |
